Format in all cases: in vivo
One assay concerns Diabrotica balteata. In words: Diabrotica balteata - spray test. To be noted: 168 h, 160 μg/well, germinated wheat seeds, larvae, after 7 days, read-out: efficacy in %. The protocol: Diabrotica balteata—Spray Test
(§1) To produce a suitable preparation of active compound, 1 part by weight of active compound is mixed with the stated amount of solvent, and the concentrate is diluted with water, containing an emulsifier concentration of 1000 ppm, to the desired concentration. Further test concentrations are prepared by dilution with emulsifier containing water.
Soaked wheat seeds (Triticum aestivum) are placed in a multiple well plate filled with agar and some water and are incubated for 1 day to germinate (5 seeds per well). The germinated wheat seeds are sprayed with a test solution containing the desired concentration of the active ingredient. Afterwards each unit is infected with 10-20 larvae of the banded cucumber beetle (Diabrotica balteata).
After 7 days efficacy in % is determined. 100% means all the seedlings have grown up like in the untreated, uninfected control; 0% means none of the seedlings have grown.

A further assay has as its system Culex quinquefasciatus. Briefly: Culex test (CULXFAS surface treatment & contact assay). The conditions noted are these: 30 minutes exposure, 24 hours after contact, read-out: efficacy (mortality in percent); for mortality at 4 mg/m2: surface concentration 4 mg/m^2, glazed tile; for mortality at 20 mg/m2: surface concentration 20 mg/m^2, glazed tile. Here is the method:
Culex Test (CULXFAS Surface Treatment & Contact Assay)
Solvent: Acetone+2000 ppm rapeseed oil methyl ester (RME)
In order to produce a sufficient, active ingredient containing solution it is necessary to solve the test-compound in an acetone/RME solvent mixture. This solution is pipetted onto a glazed tile and after evaporation of the acetone, adult mosquitoes of the species Culex quinquefasciatus (Brown house mosquito) are placed onto the dried surface. The exposure time is 30 minutes.
(§2) Mortality in percent (%) is determined 24 hours after contact to the treated surface. 100% mortality means that all test-insects are dead, whereas 0% means that not a single insect died.

The test system of the next assay is Nezara viridula. In words: Nezara viridula - spray test 1. The conditions noted are these: in Hordeum vulgare, 96 h, read-out: mortality in %. Here is the method: Nezara viridula—Spray Test 1
as §1
Barley plants (Hordeum vulgare) infested with larvae of the southern green stink bug (Nezara viridula) are sprayed with a test solution containing the desired concentration of the active ingredient.
After 4 days mortality in % is determined. 100% means all the stink bugs have been killed; 0% means none of the stink bugs have been killed.

Assay [1] deals with Musca domestica strain WHO-N. In words: Musca domestica test (MUSCDO surface treatment & contact assay). To be noted: 30 minutes exposure, 24 hours after contact, read-out: efficacy (mortality in percent); for mortality at 4 mg/m2: surface concentration 4 mg/m^2, glazed tile; for mortality at 20 mg/m2: surface concentration 20 mg/m^2, glazed tile. Here is the method:
Musca domestica Test (MUSCDO Surface Treatment & Contact Assay)
(§3) Solvent: Aceton+2000 ppm Rapeseed oil methyl ester (RME)
In order to produce a sufficient, active ingredient containing solution it is necessary to solve the test-compound in an acetone/RME solvent mixture. This solution is pipetted onto a glazed tile and after evaporation of the acetone, adult flies of the species Musca domestica strain WHO-N are placed onto the dried surface. The exposure time is 30 minutes.
as §2

Assay [2] relates to Blattella germanica strain PAULINIA
Briefly: Blattella germanica test (BLTTGE surface treatment & contact assay). The conditions noted are these: 30 minutes exposure, 24 hours after contact, read-out: efficacy (mortality in percent); for mortality at 20 mg/m2: surface concentration 20 mg/m^2, glazed tile; for mortality at 4 mg/m2: surface concentration 4 mg/m^2, glazed tile. Here is the method:
Blattella germanica Test (BLTTGE Surface Treatment & Contact Assay)
as §3
In order to produce a sufficient, active ingredient containing solution it is necessary to solve the test-compound in an acetone/RME solvent mixture. This solution is pipetted onto a glazed tile and after evaporation of the acetone, adult animals of the species Blattella germanica strain PAULINIA are placed onto the dried surface. The exposure time is 30 minutes.
as §2

The test system of a further assay is Spodoptera frugiperda. Briefly: Spodoptera frugiperda - spray test. The conditions noted are these: in Zea mays, 168 h, read-out: mortality in %. Here is the method:
Spodoptera frugiperda—Spray Test
(§4) To produce a suitable preparation of active compound, 1 part by weight of active compound is mixed with the stated amount of solvents and is diluted with water, containing an emulsifier concentration of 1000 ppm, to the desired concentration. Further test concentrations are prepared by dilution with emulsifier containing water.
Maize (Zea mays) leaf sections are sprayed with a preparation of the active ingredient of the desired concentration. Once dry, the leaf sections are infested with fall armyworm larvae (Spodoptera frugiperda).
After 7 days mortality in % is determined. 100% means all caterpillars have been killed and 0% means none of the caterpillars have been killed.

The test system of another assay is Myzus persicae. Briefly: Myzus persicae - oral test. The conditions noted are these: 120 h, read-out: mortality in %. Here is the method:
To produce a suitable preparation of active compound, 1 part by weight of active compound is mixed with the stated amount of solvent, and the concentrate is diluted with water to the desired concentration. 50 μl compound solution is filled in microtiter plates and 150 μl IPL41 insect medium (33%+15% sugar) is added to obtain a total volume of 200 μl per well. Afterwards the plates are sealed with parafilm through which a mixed population of the green peach aphid (Myzus persicae) can suck on the compound preparation.
(§5) After 5 days mortality in % is determined. 100% means all aphids have been killed and 0% means none of the aphids have been killed.

The test system of assay [3] is Aedes aegypti strain MONHEIM. In words: Aedes test (AEDSAE surface treatment & contact assay). The conditions noted are these: 30 minutes exposure, 24 hours after contact, read-out: efficacy (mortality in percent); for mortality at 4 mg/m2: surface concentration 4 mg/m^2, glazed tile; for mortality at 20 mg/m2: surface concentration 20 mg/m^2, glazed tile. Here is the method:
Aedes Test (AEDSAE Surface Treatment & Contact Assay)
Solvent: Aceton+2000 ppm rapeseed oil methyl ester (RME)
In order to produce a sufficient, active ingredient containing solution it is necessary to solve the test-compound in an acetone/RME solvent mixture. This solution is pipetted onto a glazed tile and after evaporation of the acetone, adult mosquitoes of the species Aedes aegypti strain MONHEIM are placed onto the dried surface. The exposure time is 30 minutes.
as §2

The test system of the next assay is Phaedon cochleariae. Briefly: Phaedon cochleariae - spray test. The conditions noted are these: in Brassica rapa, foliar, 168 h, read-out: mortality in %. The protocol: Phaedon cochleariae—Spray Test
as §4
Chinese cabbage (Brassica pekinensis) leaf disks are sprayed with a preparation of the active ingredient of the desired concentration. Once dry, the leaf disks are infested with mustard beetle larvae (Phaedon cochleariae).
After 7 days mortality in % is determined. 100% means all beetle larvae have been killed and 0% means none of the beetle larvae have been killed.

For a further assay, the system named is Aphis gossypii. In words: Aphis gossypii - oral test. To be noted: 120 h, read-out: mortality in %. Here is the method:
Solvent: 100 parts by weight acetone
(§6) To produce a suitable preparation of active compound, 1 part by weight of active compound is mixed with the stated amount of solvent, and the concentrate is diluted with water to the desired concentration.
50 μl compound solution is filled in microtiter plates and 150 μl IPL41 insect medium (33%+15% sugar) is added to obtain a total volume of 200 μl per well. Afterwards the plates are sealed with parafilm through which a mixed population of the cotton aphid (Aphis gossypii) can suck on the compound preparation.
as §5

For a further assay, the system named is Nilaparvata lugens. In words: Nilaparvata lugens - spray test 1. The conditions noted are these: in Oryza sativa, 96 h, read-out: mortality in %, 500 g/ha, rice plants, after 4 days. Here is the method: Nilaparvata lugens—Spray Test 1
as §4
Rice plants (Oryza sativa) are sprayed with a preparation of the active ingredient of the desired concentration and the plants are infested with the brown planthopper (Nilaparvata lugens).
After 4 days mortality in % is determined. 100% means all planthoppers have been killed and 0% means none of the planthoppers have been killed.

A further assay relates to Meloidogyne incognita. Briefly: Meloidogyne incognita - test. The conditions noted are these: 336 h, salad seedlings in sand, after 14 days, read-out: nematicidal activity (percentage of gall formation). Here is the method: Meloidogyne incognita—Test
Solvent: 125.0 parts by weight of acetone
as §6
Vessels are filled with sand, a solution of the active ingredient, a suspension containing eggs and larvae of the southern root-knot nematode (Meloidogyne incognita) and salad seeds. The salad seeds germinate and the seedlings grow. Galls develop in the roots.
After 14 days the nematicidal activity is determined on the basis of the percentage of gall formation. 100% means no galls were found and 0% means the number of galls found on the roots of the treated plants was equal to that in untreated control plants.

As to `C[C@H](NC(=O)c1cc(Cl)cc(C(F)(F)F)c1)c1ncnn1-c1ccc(Cl)cn1` [Compound I-120, 3-chloro-N-[(1S)-1-[2-(5-chloro-2-pyridyl)-1,2,4-triazol-3-yl]ethyl]-5-(trifluoromethyl)benzamide], in the assay on Diabrotica balteata, the pest or weed control at 160 µg/disc, 160 µg/well came out at 100%. The mortality at 4 mg/m2 (with Culex quinquefasciatus; in assay [1]; in [3]) was 80 to 100% throughout. The mortality at 20 mg/m2 (with Culex quinquefasciatus; in assay [1]; in assay [2]; in assay [3]) was 80 to 100% throughout. Further, the mortality at 500 g/ha with Nezara viridula, with Spodoptera frugiperda and in the assay with Phaedon cochleariae was 100% each time. Further, the mortality at 20 ppm with Myzus persicae worked out at 100%. In the assay with Aphis gossypii, the mortality at 100 ppm turned out to be 100%.
As to `Cc1nc(C(C)N(CC2CC2)C(=O)c2cc(Cl)cc(C(F)(F)F)c2)n(-c2ncc(F)cn2)n1` (centres unmarked) [Compound I-77, 3-chloro-N-(cyclopropylmethyl)-N-[1-[2-(5-fluoropyrimidin-2-yl)-5-methyl-1,2,4-triazol-3-yl]ethyl]-5-(trifluoromethyl)benzamide], the pest or weed control at 160 µg/disc, 160 µg/well in the assay with Diabrotica balteata is 100%. Besides, the mortality at 4 mg/m2 (in the assay with Culex quinquefasciatus; in [1]) was 80 to 100% in each case. Also, the mortality at 20 mg/m2 (in the assay with Culex quinquefasciatus; in assay [1]; in [2]; in [3]) was 80 to 100% throughout. The mortality at 500 g/ha in the assay on Nilaparvata lugens, in the assay on Nezara viridula, in the assay with Spodoptera frugiperda and in the assay with Phaedon cochleariae was 100% throughout. Further, the mortality at 20 ppm with Myzus persicae was determined as 100%. The mortality at 100 ppm in the assay on Aphis gossypii worked out at 100%.
On to `CC(NC(=O)c1cc(Cl)cc(C#N)c1)c1ncnn1-c1ncccn1` (centres unmarked) [Compound I-114, 3-chloro-5-cyano-N-[1-(2-pyrimidin-2-yl-1,2,4-triazol-3-yl)ethyl]benzamide], for which the pest or weed control at 160 µg/disc, 160 µg/well with Diabrotica balteata worked out at 100%. For the same compound, the mortality at 4 mg/m2 (in the assay with Culex quinquefasciatus; in assay [1]; in assay [2]; in assay [3]) was 80 to 100% each time. Besides, the mortality at 20 mg/m2 (in the assay on Culex quinquefasciatus; in [1]; in [2]; in [3]) was 80 to 100% throughout. In addition, the mortality at 500 g/ha in the assay on Nilaparvata lugens, in the assay on Nezara viridula, with Spodoptera frugiperda and in the assay with Phaedon cochleariae was 100% in each case. The mortality at 20 ppm in the assay on Myzus persicae came to 100%. The mortality at 100 ppm in the assay on Aphis gossypii worked out at 100%.
For `CC(NC(=O)c1cc(C(F)(F)F)cc(C(F)(F)F)c1)c1ncnn1-c1ncccn1` (centres unmarked) [Compound I-63, N-[1-(2-pyrimidin-2-yl-1,2,4-triazol-3-yl)ethyl]-3,5-bis(trifluoromethyl)benzamide], the pest or weed control at 160 µg/disc, 160 µg/well in the assay on Diabrotica balteata was found to be 100%. Moreover, the mortality at 4 mg/m2 (with Culex quinquefasciatus; in assay [1]; in [2]; in [3]) was 80 to 100% each time. In addition, the mortality at 20 mg/m2 (in the assay on Culex quinquefasciatus; in assay [1]; in assay [2]; in [3]) was 80 to 100% throughout. Moreover, the mortality at 500 g/ha in the assay with Nilaparvata lugens, in the assay on Nezara viridula, in the assay with Spodoptera frugiperda and in the assay on Phaedon cochleariae was 100% each time. Besides, the mortality at 20 ppm in the assay on Myzus persicae turned out to be 100%. For the same compound, the mortality at 100 ppm with Aphis gossypii is 100%.
As for `CC(NC(=O)c1cc(Cl)cc(OC(F)(F)F)c1)c1ncnn1-c1ncccn1` (centres unmarked) [Compound I-119, 3-chloro-N-[1-(2-pyrimidin-2-yl-1,2,4-triazol-3-yl)ethyl]-5-(trifluoromethoxy)benzamide], the pest or weed control at 160 µg/disc, 160 µg/well in the assay with Diabrotica balteata was 100%. The mortality at 4 mg/m2 (in the assay with Culex quinquefasciatus; in [1]; in [2]; in [3]) was 80 to 100% in each case. For the same compound, the mortality at 20 mg/m2 (with Culex quinquefasciatus; in assay [1]; in [2]; in [3]) was 80 to 100% throughout. Further, the mortality at 500 g/ha in the assay on Nilaparvata lugens, in the assay on Nezara viridula, with Spodoptera frugiperda and in the assay on Phaedon cochleariae was 100% in each case. For the same compound, the mortality at 20 ppm in the assay with Myzus persicae is 100%. Also, the mortality at 100 ppm with Aphis gossypii was found to be 100%.
In the case of `CC(c1ncnn1-c1ncccn1)N(CC1CC1)C(=O)c1cc(Cl)c(Cl)c(Cl)c1` (centres unmarked) [Compound I-111], in the assay on Meloidogyne incognita, the pest or weed control at 20 ppm was found to be 90%.
Turning to `CC(c1ncnn1-c1ncccn1)N(CC1CC1)C(=O)c1ccc(Cl)cc1` (centres unmarked) [Compound I-109], the pest or weed control at 160 µg/disc, 160 µg/well in the assay with Diabrotica balteata amounted to 100%. Also, in the assay on Meloidogyne incognita, the pest or weed control at 20 ppm worked out at 100%.
